Counter-ions that a name gives are not always drawn.
Target: IRAK4 (Homo sapiens (Human), UniProt Q9NWZ3)
Test: IRAK4 Kinase Assay (IMAP fluorescence polarization)
Format: biochemical
Conditions: 0.5 nM GST tagged IRAK4, 100 μM ATP, 30 minutes at 25° C., IMAP FP
Experimental: The kinase activity of IRAK4 is determined by its ability to catalyze the phosphorylation of a fluorescent polypeptide substrate. The extent of phosphorylation is measured using the IMAP technology (Molecular Devices) where the phosphorylated fluorescent substrate binds to the large M (III)-based nanoparticles which reduces the rotational speed of the substrate and thus increases its fluorescent polarization (FP).
20 μL reaction mixture contains 10 mM TriHCl, pH 7.2, 0.5 nM GST tagged IRAK4 (SignalChem), 100 nM fluorescent peptide substrate (RP7030, Molecular Devices), 100 μM ATP, 1 mM DDT, 1 mM MgCl2, and 0.01% Tween 20. The reaction is initiated by the addition of ATP. After incubation for 30 minutes at 25° C., 60 μL of Progressive IMAP Reagent (Molecular Devices) is added to stop the reaction. Change in RP7030's FP is determined by a FP reader (Analyst HT, LJL BioSystems).

Chain of IRAK4 (Q9NWZ3 whole entry): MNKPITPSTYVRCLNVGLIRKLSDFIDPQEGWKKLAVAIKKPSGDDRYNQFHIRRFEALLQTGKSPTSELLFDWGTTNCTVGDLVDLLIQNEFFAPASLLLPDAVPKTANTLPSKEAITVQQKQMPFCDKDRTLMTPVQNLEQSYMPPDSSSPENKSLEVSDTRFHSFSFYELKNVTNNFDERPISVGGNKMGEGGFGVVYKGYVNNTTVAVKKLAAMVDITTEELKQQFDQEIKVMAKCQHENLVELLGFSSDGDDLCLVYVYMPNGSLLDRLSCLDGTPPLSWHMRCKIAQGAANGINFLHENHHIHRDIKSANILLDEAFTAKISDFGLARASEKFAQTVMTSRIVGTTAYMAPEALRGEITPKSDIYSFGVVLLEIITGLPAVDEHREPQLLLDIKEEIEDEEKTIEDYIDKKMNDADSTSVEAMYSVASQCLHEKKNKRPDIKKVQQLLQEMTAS

IC50 [µM]	SMILES
0.085	Cn1cc(NC(=O)c2ccc3ccc(N4C[C@@H]5CN[C@@H](C5)C4)nn23)c(C(F)(F)F)n1 (single isomer, unassigned) [Example 3, 2-[(1S,5S)- or (1R,5R)-3,6-diazabicyclo[3.2.1]oct-3-yl]-N-[1-methyl-3-(trifluoromethyl)-1H-pyrazol-4-yl]pyrrolo[1,2-b]pyridazine-7-carboxamide]
0.131	Cn1cc(NC(=O)c2ccc3ccc(N4C[C@H]5CN[C@H](C5)C4)nn23)c(C(F)(F)F)n1 (single isomer, unassigned) [Example 4, 2-[(1S,5S)- or (1R,5R)-3,6-diazabicyclo[3.2.1]oct-3-yl]-N-[1-methyl-3-(trifluoromethyl)-1H-pyrazol-4-yl]pyrrolo[1,2-b]pyridazine-7-carboxamide]
0.045	Cn1cc(NC(=O)c2ccc3ccc(N4C[C@@H]5CC[C@H]4CN5)nn23)c(Cl)n1 (single isomer, unassigned) [Example 33, N-(3-chloro-1-methyl-1H-pyrazol-4-yl)-2-[(1S,4S)- or (1R,4R)-2,5-diazabicyclo[2.2.2]oct-2-yl]pyrrolo[1,2-b]pyridazine-7-carboxamide trifluoroacetate]
0.015	Cn1cc(NC(=O)c2ccc3ccc(N4C[C@H]5CC[C@@H]4CN5)nn23)c(Cl)n1 (single isomer, unassigned) [Example 34, N-(3-chloro-1-methyl-1H-pyrazol-4-yl)-2-[(1S,4S)- or (1R,4R)-2,5-diazabicyclo[2.2.2]oct-2-yl]pyrrolo[1,2-b]pyridazine-7-carboxamide trifluoroacetate]
0.034	Cn1cc(NC(=O)c2ccc3ccc(N4C[C@@H]5CC[C@H]4CN5)nn23)c(Br)n1 (single isomer, unassigned) [Example 35, N-(3-bromo-1-methyl-1H-pyrazol-4-yl)-2-[(1S,4S)- or (1R,4R)-2,5-diazabicyclo[2.2.2]oct-2-yl]pyrrolo[1,2-b]pyridazine-7-carboxamide trifluoroacetate]
0.022	Cn1cc(NC(=O)c2ccc3ccc(N4C[C@H]5CC[C@@H]4CN5)nn23)c(Br)n1 (single isomer, unassigned) [Example 36, N-(3-bromo-1-methyl-1H-pyrazol-4-yl)-2-[(1S,4S)- or (1R,4R)-2,5-diazabicyclo[2.2.2]oct-2-yl]pyrrolo[1,2-b]pyridazine-7-carboxamide trifluoroacetate]
0.003	Cn1cc(NC(=O)c2ccc3ccc(N4C[C@@H]5CC[C@H]4CN5)nn23)c(C(F)F)n1 (single isomer, unassigned) [Example 37, 2-[(1S,4S)- or (1R,4R)-2,5-diazabicyclo[2.2.2]oct-2-yl]-N-[3-(difluoromethyl)-1-methyl-1H-pyrazol-4-yl]pyrrolo[1,2-b]pyridazine-7-carboxamide trifluoroacetate]
0.002	Cn1cc(NC(=O)c2ccc3ccc(N4C[C@H]5CC[C@@H]4CN5)nn23)c(C(F)F)n1 (single isomer, unassigned) [Example 38, 2-[(1S,4S)- or (1R,4R)-2,5-diazabicyclo[2.2.2]oct-2-yl]-N-[3-(difluoromethyl)-1-methyl-1H-pyrazol-4-yl]pyrrolo[1,2-b]pyridazine-7-carboxamide trifluoroacetate]
0.002	Cn1cc(NC(=O)c2ccc3ccc(N[C@@H]4CCCCNC4)nn23)c(C(F)(F)F)n1 (single isomer, unassigned) [Example 39, 2-[(3R)- or (3S)-azepan-3-ylamino]-N-[1-methyl-3-(trifluoromethyl)-1H-pyrazol-4-yl]pyrrolo[1,2-b]pyridazine-7-carboxamide trifluoroacetate]
0.002	Cn1cc(NC(=O)c2ccc3ccc(N[C@H]4CCCCNC4)nn23)c(C(F)(F)F)n1 (single isomer, unassigned) [Example 40, 2-[(3R)- or (3S)-azepan-3-ylamino]-N-[1-methyl-3-(trifluoromethyl)-1H-pyrazol-4-yl]pyrrolo[1,2-b]pyridazine-7-carboxamide trifluoroacetate]
0.0002	Cn1cc(NC(=O)c2ccc3ccc(N[C@@H]4CCCCNC4)nn23)c(C(F)F)n1 (single isomer, unassigned) [Example 41, 2-[(3R)- or (3S)-azepan-3-ylamino]-N-[3-(difluoromethyl)-1-methyl-1H-pyrazol-4-yl]pyrrolo[1,2-b]pyridazine-7-carboxamide trifluoroacetate]
0.0003	Cn1cc(NC(=O)c2ccc3ccc(N[C@H]4CCCCNC4)nn23)c(C(F)F)n1 (single isomer, unassigned) [Example 42, 2-[(3R)- or (3S)-azepan-3-ylamino]-N-[3-(difluoromethyl)-1-methyl-1H-pyrazol-4-yl]pyrrolo[1,2-b]pyridazine-7-carboxamide trifluoroacetate]
0.025	Cn1cc(NC(=O)c2ccc3ccc(N4C[C@@H]5CC[C@H]4CN5)nn23)c(C#N)n1 (single isomer, unassigned) [Example 43, N-(3-cyano-1-methyl-1H-pyrazol-4-yl)-2-[(1S,4S)- or (1R,4R)-2,5-diazabicyclo[2.2.2]oct-2-yl]pyrrolo[1,2-b]pyridazine-7-carboxamide trifluoroacetate]
0.05	Cn1cc(NC(=O)c2ccc3ccc(N4C[C@H]5CC[C@@H]4CN5)nn23)c(C#N)n1 (single isomer, unassigned) [Example 44, N-(3-cyano-1-methyl-1H-pyrazol-4-yl)-2-[(1S,4S)- or (1R,4R)-2,5-diazabicyclo[2.2.2]oct-2-yl]pyrrolo[1,2-b]pyridazine-7-carboxamide trifluoroacetate]
0.004	Cn1cc(NC(=O)c2ccc3ccc(N4C[C@@H]5CN[C@@H](C5)C4)nn23)c(C(F)F)n1 (single isomer, unassigned) [Example 50, 2-[(1S,5S)- or (1R,5R)-3,6-diazabicyclo[3.2.1]oct-3-yl]-N-[3-(difluoromethyl)-1-methyl-1H-pyrazol-4-yl]pyrrolo[1,2-b]pyridazine-7-carboxamide]
0.012	Cn1cc(NC(=O)c2ccc3ccc(N4C[C@@H]5CN[C@@H](C5)C4)nn23)c(C(F)F)n1 (single isomer, unassigned) [Example 51, 2-[(1S,5S)- or (1R,5R)-3,6-diazabicyclo[3.2.1]oct-3-yl]-N-[3-(difluoromethyl)-1-methyl-1H-pyrazol-4-yl]pyrrolo[1,2-b]pyridazine-7-carboxamide]
0.697	O=C(Nc1ccsc1Br)c1ccc2ccc(N3C[C@@H]4CC[C@H]3CN4)nn12 (single isomer, unassigned) [Example 78, N-(2-bromothiophen-3-yl)-2-[(1S,4S)- or (1R,4R)-2,5-diazabicyclo[2.2.2]oct-2-yl]pyrrolo[1,2-b]pyridazine-7-carboxamide trifluoroacetate]
0.192	O=C(Nc1ccsc1Br)c1ccc2ccc(N3C[C@H]4CC[C@@H]3CN4)nn12 (single isomer, unassigned) [Example 79, N-(2-bromothiophen-3-yl)-2-[(1S,4S)- or (1R,4R)-2,5-diazabicyclo[2.2.2]oct-2-yl]pyrrolo[1,2-b]pyridazine-7-carboxamide trifluoroacetate]
0.103	N#Cc1sccc1NC(=O)c1ccc2ccc(N3C[C@@H]4CC[C@H]3CN4)nn12 (single isomer, unassigned) [Example 80, N-(2-cyanothiophen-3-yl)-2-[(1S,4S)- or (1R,4R)-2,5-diazabicyclo[2.2.2]oct-2-yl]pyrrolo[1,2-b]pyridazine-7-carboxamide formate]
0.356	N#Cc1sccc1NC(=O)c1ccc2ccc(N3C[C@H]4CC[C@@H]3CN4)nn12 (single isomer, unassigned) [Example 81, N-(2-cyanothiophen-3-yl)-2-[(1S,4S)- or (1R,4R)-2,5-diazabicyclo[2.2.2]oct-2-yl]pyrrolo[1,2-b]pyridazine-7-carboxamide formate]
0.188	O=C(Nc1cscc1Cl)c1ccc2ccc(N3C[C@@H]4CC[C@H]3CN4)nn12 (single isomer, unassigned) [Example 83, N-(4-chlorothiophen-3-yl)-2-[(1S,4S)- or (1R,4R)-2,5-diazabicyclo[2.2.2]oct-2-yl]pyrrolo[1,2-b]pyridazine-7-carboxamide trifluoroacetate]
0.126	O=C(Nc1cscc1Cl)c1ccc2ccc(N3C[C@H]4CC[C@@H]3CN4)nn12 (single isomer, unassigned) [Example 84, N-(4-chlorothiophen-3-yl)-2-[(1S,4S)- or (1R,4R)-2,5-diazabicyclo[2.2.2]oct-2-yl]pyrrolo[1,2-b]pyridazine-7-carboxamide trifluoroacetate]
0.089	N#Cc1ccccc1NC(=O)c1ccc2ccc(N[C@@H]3CCCCNC3)nn12 (single isomer, unassigned) [Example 108, 2-[(3R)- or (3S)-azepan-3-ylamino]-N-(2-cyanophenyl)pyrrolo [1,2-b]pyridazine-7-carboxamide trifluoroacetate]
0.007	N#Cc1ccccc1NC(=O)c1ccc2ccc(N[C@H]3CCCCNC3)nn12 (single isomer, unassigned) [Example 109, 2-[(3R)- or (3S)-azepan-3-ylamino]-N-(2-cyanophenyl)pyrrolo [1,2-b]pyridazine-7-carboxamide trifluoroacetate]
1.22	O=C(Nc1ccsc1C(F)(F)F)c1ccc2ccc(N3C[C@@H]4CC[C@H]3CN4)nn12 (single isomer, unassigned) [Example 113, 2-[(1S,4S)- or (1R,4R)-2,5-diazabicyclo[2.2.2]oct-2-yl]-N-[2-(trifluoromethyl)thiophen-3-yl]pyrrolo[1,2-b]pyridazine-7-carboxamide trifluoroacetate]
